Measurements: US6048890A, “Phenylamidinothiophene derivatives and anti-inflammatory agent containing the same” (Kaken Pharmaceutical Co., Ltd., priority 1995, dated 2000)
Where “and” joins values, the source holds several entries; their conditions need not be identical. Equal values may be shown once. Read-outs that look alike come from different tables or passages of the source.

Assays:
rat adjuvant arthritis = experiment: Action on rat adjuvant arthritis (paw swelling inhibition); assay type: in vivo, male Lewis rats; details: mean of 4 rats (standard error); for Swelling inhibition (%), Primary inflammation (inoculated paw): measured 3 days after adjuvant inoculation; for Swelling inhibition (%), Secondary inflammation (uninoculated paw): measured 17 days after adjuvant inoculation
Procedure: Seven-week old male Lewis rats (4 rats in one group) were injected under the plantar skin of the right hind paw with 0.6 mg/0.1 ml of a suspension of human tubercle bacillus, killed Mycobacterium tuberculosis H37 RA in liquid paraffin, thereby inducing adjuvant arthritis. The volume of the adjuvant-inoculated paw (primary inflammation) was measured 3 days after the inoculation of adjuvant and the volume of the adjuvant-uninoculated paw (secondary inflammation) 17 days after the inoculation of adjuvant. The swelling rate of each paw was calculated with respect to the volume of the paw before the inoculation of adjuvant. Ten mg of the instant compound was suspended in 10 ml of a 0.5% by weight aqueous solution of carboxymethyl cellulose and the oral administration of the obtained suspension began on day of adjuvant inoculating and continued for 17 days in a dose of 10 mg/kg one time per day.
The swelling rate and inhibition rate were calculated according to the following formulae: [formula]
Each value is an average value for 4 rats in one group and the value in parentheses is standard error.

stress ulcer in mice = assay type: in vivo; details: for Ulcer index: 15 minutes before 7 h constraint under water immersion, average of sum of ulcer lengths
Procedure: Six-week old male ddy […] (10 rats in one group) were completely fasted overnight and then loaded with constraint under water immersion for 7 hours. The rats were observed under a stereoscopic microscope to examine production of gastric ulcer. Sum (mm) of lengths of ulcers for each animal was taken as ulcer index. Ten mg, 30 mg or 100 mg of the instant compound was mixed with 0.15 ml of Tween 80 and suspended into a 0.5% by weight aqueous solution of gum arabic to give a total 10 ml of a suspension. The suspension was orally administered 15 minutes before loading of the constraint under water immersion. Indomethacin was used as a comparative drug.
The test results are shown in Table 3 in terms of an average value of ulcer indexes.

[1] = target: T1, cyclooxygenase of sheep seminal vesicle gland (Ovis aries, UniProt P05979); experiment: Action on activity of cyclooxygenase of sheep seminal vesicle gland; assay type: biochemical
T1 construct: purchased CAYMAN CO., LTD; host or cells: sheep seminal vesicle gland
T1 sequence (P05979 25-600): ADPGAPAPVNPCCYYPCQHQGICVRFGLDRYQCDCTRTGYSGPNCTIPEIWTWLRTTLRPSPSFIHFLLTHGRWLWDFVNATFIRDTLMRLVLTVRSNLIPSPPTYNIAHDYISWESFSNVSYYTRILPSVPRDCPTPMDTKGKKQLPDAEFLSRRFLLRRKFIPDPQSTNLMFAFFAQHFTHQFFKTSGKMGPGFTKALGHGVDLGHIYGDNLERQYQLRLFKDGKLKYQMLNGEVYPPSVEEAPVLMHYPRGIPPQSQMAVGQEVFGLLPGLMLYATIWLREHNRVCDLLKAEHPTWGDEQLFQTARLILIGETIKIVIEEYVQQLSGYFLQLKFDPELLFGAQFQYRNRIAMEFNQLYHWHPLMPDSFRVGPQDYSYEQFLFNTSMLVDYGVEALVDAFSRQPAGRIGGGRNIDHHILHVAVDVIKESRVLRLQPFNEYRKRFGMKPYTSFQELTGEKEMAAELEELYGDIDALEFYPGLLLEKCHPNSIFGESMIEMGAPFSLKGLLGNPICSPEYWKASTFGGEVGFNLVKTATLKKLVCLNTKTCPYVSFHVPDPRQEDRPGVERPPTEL
Procedure: Two hundred and fifty μl of an enzyme solution containing each test compound [5 mM triptophan, 200 nM hematin, 0.04% by weight Tween 20, 10 units of cyclooxygenase of sheep seminal vesicle gland (made by CAYMAN CO., LTD.), 2 μM [1-^14 C] arachidonic acid, 0.1 M Tris-hydrochloric acid buffer solution (pH: 8.0)], underwent a reaction at 25° C. for 6 minutes. The reaction was terminated by addition of 0.5 ml of a 0.2 M citric acid buffer solution (pH 3.0). [1-^14 C]arachidonic acid was extracted with ethyl acetate and separated by a thin layer chromatography. The radioactivity of the resulting arachidonic acid fraction was determined with a scintillation counter and the inhibition was calculated.
The inhibition value was calculated according to the following formula: [formula]

[2] = 10 mg/kg oral once daily for 17 days
[3] = comparative drug, 1 mg/kg, 1 mg/kg
[4] = comparative drug, 1 mg/kg, listed as indomethacin, 1 mg/kg

Compound | Swelling inhibition (%), Primary inflammation (inoculated paw) (rat adjuvant arthritis; [2]) | Swelling inhibition (%), Secondary inflammation (uninoculated paw) (rat adjuvant arthritis; [2]) | other results
CS(=O)(=O)c1ccc(-c2cc(C(=N)Nc3cccc(Cl)c3)sc2-c2ccc(F)cc2)cc1 [Example 1, 5-[N^1-(3-chlorophenyl)amidino]-2-(4-fluorophenyl)-3-(4-methylsulfonylphenyl)thiophene] | 31.5% and 31.5 (0.91) % | 48.9% and 48.9 (3.58) % | Ulcer index (stress ulcer in mice; 10 mg/kg oral): 6.5 mm; Ulcer index (stress ulcer in mice; 30 mg/kg oral): 10.8 mm; Ulcer index (stress ulcer in mice; 100 mg/kg oral): 9.6 mm; Ulcer index / ulcer-exacerbating action (in words) (stress ulcer in mice; compared with solvent-given group, up to 100 mg/kg (Example 1), 1 and 3 mg/kg (indomethacin)): no evident difference in ulcer index was observed even in the group given 100 mg/kg; inhibition at 100 µM ([1]; 10^-4 M, pH 8.0, 25° C., 6 minutes, average of two experiments): -2.2%; inhibition at 10 µM ([1]; 10^-5 M, pH 8.0, 25° C., 6 minutes, average of two experiments): 1.3%; inhibition at 1 µM ([1]; 10^-6 M, pH 8.0, 25° C., 6 minutes, average of two experiments): 3.4%; Inhibition of cyclooxygenase activity (in words) ([1]; even in 10^-4 M added group): did not inhibit the activity of cyclooxygenase
CS(=O)(=O)c1ccc(-c2cc(C(=N)Nc3ccccc3)sc2-c2ccc(F)cc2)cc1 [Example 2] | 22.6 (5.24) % | 28.4 (2.55) % | 
CS(=O)(=O)c1ccc(-c2cc(C(=N)Nc3ccccc3Cl)sc2-c2ccc(F)cc2)cc1 [Example 3] | 22.1 (4.94) % | 32.2 (10.8) % | 
CS(=O)(=O)c1ccc(-c2cc(C(=N)Nc3ccc(Cl)cc3)sc2-c2ccc(F)cc2)cc1 [Example 4] | 32.7 (7.40) % | 57.4 (8.54) % | 
CS(=O)(=O)c1ccc(-c2cc(C(=N)Nc3cccc(F)c3)sc2-c2ccc(F)cc2)cc1 [Example 5] | 23.5 (4.75) % | 34.7 (4.26) % | 
CS(=O)(=O)c1ccc(-c2cc(C(=N)Nc3ccc(F)cc3)sc2-c2ccc(F)cc2)cc1 [Example 6] | 26.3 (4.37) % | 57.2 (5.34) % | 
CS(=O)(=O)c1ccc(-c2cc(C(=N)Nc3ccc(Br)cc3)sc2-c2ccc(F)cc2)cc1 [Example 7] | 36.1 (6.36) % | 48.8 (3.20) % | 
COc1ccc(NC(=N)c2cc(-c3ccc(S(C)(=O)=O)cc3)c(-c3ccc(F)cc3)s2)cc1 [Example 11] | 35.0 (10.1) % | 37.1 (4.42) % | 
CS(=O)(=O)c1ccc(-c2cc(C(=N)Nc3ccc(F)cc3F)sc2-c2ccc(F)cc2)cc1 [Example 12] | 18.2 (2.73) % | 24.9 (10.2) % | 
CS(=O)(=O)c1ccc(-c2cc(C(=N)Nc3ccc(Cl)cc3Cl)sc2-c2ccc(F)cc2)cc1 [Example 13] | 16.7 (3.25) % | 24.2 (5.05) % | 
CS(=O)(=O)c1ccc(-c2cc(C(=N)Nc3ccc(Cl)c(Cl)c3)sc2-c2ccc(F)cc2)cc1 [Example 17] | 27.4 (7.02) % | 44.1 (3.83) % | 
CS(=O)(=O)c1ccc(-c2cc(C(=N)Nc3ccc(F)c(Cl)c3)sc2-c2ccc(F)cc2)cc1 [Example 18] | 27.9 (3.09) % | 48.9 (9.69) % | 
COc1ccc2c(c1)c(CC(=O)O)c(C)n2C(=O)c1ccc(Cl)cc1 [Indomethacin, indomethacin, reference compound] |  |  | Swelling inhibition (%), Primary inflammation (inoculated paw) (rat adjuvant arthritis; [3]): 28.3 (4.10) %; Swelling inhibition (%), Primary inflammation (inoculated paw) (rat adjuvant arthritis; [4]): 28.8%; Swelling inhibition (%), Secondary inflammation (uninoculated paw) (rat adjuvant arthritis; [3]): 43.6 (9.42) %; Swelling inhibition (%), Secondary inflammation (uninoculated paw) (rat adjuvant arthritis; [4]): 43.6%; Inhibition of cyclooxygenase activity (in words) ([1]; 10^-6 M): completely inhibited the activity; inhibition at 0.1 µM ([1]; 10^-7 M, pH 8.0, 25° C., 6 minutes, average of two experiments): 66.2%; Concentrations at which the activity of cyclooxygenase was inhibited ([1]; dependent on dosage): ≥ 10^-8 M
